The values that follow come from patent US9050285B2, “Recombinant bacterium capable of eliciting an immune response against Streptococcus pneumoniae” (The United States of America National Institutes of Health …, priority 2008, dated 2015).

Common to all, as to assay type: cell-based
The subject of one assay is χ9639(pYA4088). Kind of assay: Minimum inhibitory concentrations of antibiotics for RASV-Sp strain χ9639(pYA4088). The settings on record: Salmonella Typhi strain χ9639(pYA4088); for MIC: Salmonella enterica, read-out: Minimum inhibitory concentration. The source says: (§1) Master seed and working seed banks of each vaccine organism in separate vials have been prepared for frozen storage in vegetable-based cryopreservative. […] Antibiotic sensitivity testing has confirmed that these strains are sensitive to ciprofloxacin, ampicillin, ceftriaxone, trimethoprim/sulfamethoxazole (Table 13). Ampicillin, ciprofloxacin, ceftriaxone and trimethoprim/sulfamethoxazole are typically tested for minimum inhibitory concentrations (MICs) for Salmonella.

For a further assay, the system named is χ9640(pYA4088). Kind of assay: Minimum inhibitory concentrations of antibiotics for RASV-Sp strain χ9640(pYA4088). The following applies: Salmonella Typhi strain χ9640(pYA4088); for MIC: Salmonella enterica, read-out: Minimum inhibitory concentration.
Description: as §1

Another assay concerns χ9633(pYA4088). Kind of assay: Minimum inhibitory concentrations of antibiotics for RASV-Sp strain χ9633(pYA4088). The settings on record: Salmonella Typhi strain χ9633(pYA4088).
Description: as §1

In the case of `CC1(C)S[C@@H]2[C@H](NC(=O)[C@H](N)c3ccccc3)C(=O)N2[C@H]1C(=O)O` [ampicillin], the MIC with χ9639(pYA4088) and in the assay on χ9640(pYA4088) was less than 2 µg/mL each time.

As to `CO/N=C(\C(=O)N[C@@H]1C(=O)N2C(C(=O)O)=C(CSc3nc(=O)c(=O)[nH]n3C)CS[C@H]12)c1csc(N)n1` [ceftriaxone], the MIC in the assay with χ9639(pYA4088) and in the assay on χ9640(pYA4088) was less than 1 µg/mL throughout.

`O=C(O)c1cn(C2CC2)c2cc(N3CCNCC3)c(F)cc2c1=O` [ciprofloxacin]: the MIC in the assay on χ9639(pYA4088) and in the assay on χ9640(pYA4088) was less than 0.25 µg/mL in each case.

As for trimethroprim-sulfamethoxazole, the Minimum inhibitory concentration in the assay with χ9633(pYA4088), in the assay on χ9639(pYA4088) and with χ9640(pYA4088) was less than 20 µg/mL throughout.
